Molecules are shown by their SMILES.

The target of experiment [1] is T1, GELATINASE (Homo sapiens, UniProt P08253).
T1 sequence (P08253 110-660): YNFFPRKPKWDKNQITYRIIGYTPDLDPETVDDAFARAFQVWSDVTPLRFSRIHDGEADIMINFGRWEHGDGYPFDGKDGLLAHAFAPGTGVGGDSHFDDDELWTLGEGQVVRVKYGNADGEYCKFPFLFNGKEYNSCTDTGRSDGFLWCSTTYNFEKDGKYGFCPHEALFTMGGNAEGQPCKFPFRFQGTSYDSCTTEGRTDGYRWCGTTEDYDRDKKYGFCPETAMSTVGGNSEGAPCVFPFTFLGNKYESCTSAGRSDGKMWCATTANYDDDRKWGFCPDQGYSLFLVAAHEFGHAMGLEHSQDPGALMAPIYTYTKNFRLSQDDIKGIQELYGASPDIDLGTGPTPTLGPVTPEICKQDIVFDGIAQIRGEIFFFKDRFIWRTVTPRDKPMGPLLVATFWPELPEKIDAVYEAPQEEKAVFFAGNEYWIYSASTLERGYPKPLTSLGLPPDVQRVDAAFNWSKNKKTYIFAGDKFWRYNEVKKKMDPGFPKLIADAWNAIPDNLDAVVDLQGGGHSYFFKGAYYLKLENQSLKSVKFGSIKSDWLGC
In words: inhibition of cleavage of fluorogenic peptide DNP-Pro-Leu-Gly-Leu-Trp-Ala-(D)-Arg-NH2 by gelatinase. The class given is biochemical. Particulars: Human Fibroblast; SE in parentheses.

Experiment [2] has as its target Human Fibroblast STROMELYSIN (Homo sapiens, UniProt P08254). In words: biochemical. Particulars: SE in parentheses.
The target of experiment [3] is human rheumatoid synovial collagenase. The conditions noted are these: cited from earlier work.
Experiment [4] deals with rabbit bone proteoglycanase. The conditions noted are these: cited from earlier work.
Experiment [5] has as its target T2, COLLAGENASE (Homo sapiens, UniProt P03956).
T2 sequence (P03956 100-469): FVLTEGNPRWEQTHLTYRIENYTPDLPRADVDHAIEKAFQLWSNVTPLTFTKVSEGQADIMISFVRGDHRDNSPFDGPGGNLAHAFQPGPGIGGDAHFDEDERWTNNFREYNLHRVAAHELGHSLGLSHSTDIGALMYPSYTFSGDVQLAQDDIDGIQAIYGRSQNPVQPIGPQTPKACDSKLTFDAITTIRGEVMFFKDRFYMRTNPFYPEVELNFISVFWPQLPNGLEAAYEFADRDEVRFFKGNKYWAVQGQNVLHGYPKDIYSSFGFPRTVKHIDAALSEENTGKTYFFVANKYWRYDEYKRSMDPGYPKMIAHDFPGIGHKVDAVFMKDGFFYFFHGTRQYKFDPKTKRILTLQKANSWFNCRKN
In words: inhibition of cleavage of fluorogenic peptide DNP-Pro-Leu-Gly-Leu-Trp-Ala-(D)-Arg-NH2 by collagenase. The class given is biochemical. Particulars: Human Fibroblast; SE in parentheses where printed.

Sequence of Human Fibroblast STROMELYSIN (P08254 100-477): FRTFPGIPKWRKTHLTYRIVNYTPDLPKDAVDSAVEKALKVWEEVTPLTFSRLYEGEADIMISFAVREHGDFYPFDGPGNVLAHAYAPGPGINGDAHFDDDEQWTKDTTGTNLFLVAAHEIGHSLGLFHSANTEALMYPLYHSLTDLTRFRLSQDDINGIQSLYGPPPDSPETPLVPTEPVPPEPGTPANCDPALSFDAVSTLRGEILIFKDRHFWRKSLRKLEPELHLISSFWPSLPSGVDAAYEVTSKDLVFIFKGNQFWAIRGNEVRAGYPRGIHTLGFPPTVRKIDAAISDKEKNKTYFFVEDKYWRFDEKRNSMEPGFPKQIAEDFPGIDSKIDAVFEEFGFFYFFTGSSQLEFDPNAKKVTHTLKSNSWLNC

Usually Ki stands for the dissociation constant of the complex between target and ligand, obtained from inhibition or displacement. Turning to `CC(C)C[C@H](NC(=O)C(CCc1ccccc1)CP(=O)(O)CCCCNC(=O)NC(C)C)C(=O)Nc1ccccc1` (some centres unmarked) [(CH2)4 NCHCONH-i-C3 H7], the figures for the Ki in experiment [1] and in experiment [2] were 0.0056 µM and 0.022 µM, respectively.

The term IC50 denotes the midpoint of a concentration-inhibition curve. For the compound `CNC(=O)[C@H](Cc1ccc(OC)cc1)NC(=O)[C@H](CC(C)C)NC(CCNC(=O)OCc1ccccc1)C(=O)O` (stereo partly drawn) [N-[3-(benzyloxycarbonyl)amino-1-carboxy-n-propyl]-L-leucyl-O-methyl-L-tyrosine, N-methylamide], the IC50 is 800 nM in experiment [3] and 500 nM in experiment [4].

For `CC(=O)N1CCC[C@H]1C(=O)N[C@@H](C)C(=O)N[C@@H](C)P(=O)(O)CC(CCc1ccccc1)C(=O)N[C@@H](CC(C)C)C(=O)Nc1ccccc1` (stereo partly drawn) [(R)CH(CH3)NHAlaProAc, [[Hydroxy[1(R)-[N-(N-acetyl-L-prolyl-L-alanyl)-amino]-ethyl]-phosphinyl]-methyl]-4-phenylbutanoyl-L-leucyl N-phenylamide], the Ki in experiment [1] came to 0.0026 µM; in experiment [2], 0.0061 µM; in experiment [5], 2900 nM.

With `CC(C)C[C@H](NC(=O)C(CCc1ccccc1)CP(=O)(O)CCCCN1C(=O)c2ccccc2C1=O)C(=O)Nc1ccccc1` (stereo partly drawn) [(CH2)4 NPhth, (2-(((4-(1,3-Dihydro-1,3-dioxo-2H-isoindol-2-yl)butyl)hydroxyphosphinyl)methyl)-4-phenylbutanoyl)-L-leucine N-phenylamide], the inhibition constant Ki in experiment [1] turned out to be 0.026 µM; in experiment [5], 1000 nM.

Regarding `CC(C)COC(=O)NCCCCP(=O)(O)CC(CCc1ccccc1)C(=O)N[C@@H](CC(C)C)C(=O)Nc1ccccc1` (some centres unmarked) [(CH2)4 NCO2 -i-C4 H4], the Ki stood at 0.034 µM in experiment [1] and 0.019 µM in experiment [2].

Values taken from patent US5679700A, “Substituted phosphinic acid-containing peptidyl derivatives as antidegenerative agents” (Merck & Co., Inc., priority 1995, dated 1997).
